Data published in EPA's ToxValDB 9.5 (doi:10.2903/j.efsa.2018.5465).
Values after ≈ are worked out from the molar mass of the structure shown.

Experiments:
Typhlodromus pyri = experiment: LR50; higher = less toxic; details: acute; mortality
Daphnia magna = details: chronic/long-term; duration: 21 days
Oncorhynchus mykiss = details: acute; duration: 96 hours; mortality
Colinus virginianus = details: reproduction developmental
Coturnix japonica = details: acute; oral; mortality
Folsomia candida = details: chronic/long-term; duration: 28 days
Apis mellifera = details: acute, mortality
Canidae = details: chronic; duration: 1 years; Dog Other; clinical signs
Tagia sp. = details: chronic/long-term; duration: 56 days

## CCN(CC)C(=O)[C@@H](C)Oc1cccc2ccccc12 [(R)-N,N-Diethyl-2-(1-naphthyloxy)propionamide]
Typhlodromus pyri
  LR50: > 4140 g/ha
Daphnia magna
  NOEC: 0.1 mg/L
Oncorhynchus mykiss
  LC50: 11.2 mg/L (≈ 41.3 µM)
Rattus norvegicus; acute, oral, mortality
  LD50: > 2000 mg/kg-day
Rattus norvegicus; chronic, duration: 2 years, body weight
  NOAEL: 30 mg/kg-day
Rattus norvegicus; subchronic, duration: 90 days, oral, hematological
  NOAEL: 46 mg/kg-day
Colinus virginianus
  NOAEL: 309 mg/kg-day
Coturnix japonica
  LD50: > 2000 mg/kg-day
Folsomia candida
  NOEC: 47.7 mg/kg
Apis mellifera; dermal
  LD50: > 110 µg/piece
Apis mellifera; oral, unspecified
  LD50: > 110 µg/piece
Canidae
  NOAEL: 50 mg/kg-day
Tagia sp.
  NOEC: 17.1 mg/kg
